Legend:
LOXL2-low HaCaT cells = assay: Corilagin level in conditioned medium by LC-MS, HaCaT; type: in vitro ADME; details: 1 μM, 5 hrs
LOXL2-high A549 cells = assay: Corilagin level in conditioned medium by LC-MS, A549; type: in vitro ADME; details: 1 μM, 5 hrs
EGFR = assay: EGF signaling through EGFR (immunoblot); type: cell-based; details: 1 μM, 6 h pre-treatment, A549 and MDA-MB-231 cells
Method: Immunoblot. Pulverized tissue and cells were lysed in RIP A buffer (150 mM NaCl, 50 mM Tris, pH 8.0, 1% Triton X-100, 0.5% sodium deoxycholate, 0.1% SDS, supplemented with protease and phosphatase inhibitors) and analyzed by immunoblotting. Densitometry was quantified using NIH Imaged software.

[1] = system: urinary DPD/PYD after bleomycin; assay: Urinary PYD/DPD measurements; type: in vivo, mice; details: 100 mg/kg from day 10
Method: Urinary PYD/DPD measurements. Pooled urine from each of 3-5 mice for each time point after bleomycin in a cohort of mice treated with vehicle or corilagin (100 mg/kg) beginning on day 10 post bleomycin were collected. Urine specimens were also collected from two cohorts of IPF patients and controls at two sites: All consenting patients with physician-established diagnosis of IPF followed in the respective ILD programs were included in sample collection. PYD/DPD levels from all the samples were measured using MicroVue EIA Assay Kit (Quidel Corp., San Diego, Calif.) along with PYD/DPD standards and the results were normalized relative to urinary creatinine. The statistical significance was analyzed using Mann-Whitney U-Test.

[2] = Plasma level of corilagin, LC/MS analysis; type: in vivo, mice; details: C57BL/6, mouse, 2 hrs after the last oral dose of 100 mg/kg, day 21, read-out: average circulating level
Method: Plasma level of corilagin—LC/MS analysis. Corilagin in C57BL/6 mice two hours following last oral administration at day 21 was analyzed. Blood samples (˜500 μL/sample) were collected via cardiac puncture. Samples were placed in tubes containing heparin sodium and stored on ice until centrifuged for plasma.

human LOXL2 = target: T1, human LOXL2 (Homo sapiens, UniProt Q9Y4K0); assay: LOX activity assay (H2O2 release, fluorimetric); type: biochemical; details: 1 h incubation, read-out: IC50 of LOXL2 enzymatic activity toward a model substrate
T1 sequence (Q9Y4K0 26-774): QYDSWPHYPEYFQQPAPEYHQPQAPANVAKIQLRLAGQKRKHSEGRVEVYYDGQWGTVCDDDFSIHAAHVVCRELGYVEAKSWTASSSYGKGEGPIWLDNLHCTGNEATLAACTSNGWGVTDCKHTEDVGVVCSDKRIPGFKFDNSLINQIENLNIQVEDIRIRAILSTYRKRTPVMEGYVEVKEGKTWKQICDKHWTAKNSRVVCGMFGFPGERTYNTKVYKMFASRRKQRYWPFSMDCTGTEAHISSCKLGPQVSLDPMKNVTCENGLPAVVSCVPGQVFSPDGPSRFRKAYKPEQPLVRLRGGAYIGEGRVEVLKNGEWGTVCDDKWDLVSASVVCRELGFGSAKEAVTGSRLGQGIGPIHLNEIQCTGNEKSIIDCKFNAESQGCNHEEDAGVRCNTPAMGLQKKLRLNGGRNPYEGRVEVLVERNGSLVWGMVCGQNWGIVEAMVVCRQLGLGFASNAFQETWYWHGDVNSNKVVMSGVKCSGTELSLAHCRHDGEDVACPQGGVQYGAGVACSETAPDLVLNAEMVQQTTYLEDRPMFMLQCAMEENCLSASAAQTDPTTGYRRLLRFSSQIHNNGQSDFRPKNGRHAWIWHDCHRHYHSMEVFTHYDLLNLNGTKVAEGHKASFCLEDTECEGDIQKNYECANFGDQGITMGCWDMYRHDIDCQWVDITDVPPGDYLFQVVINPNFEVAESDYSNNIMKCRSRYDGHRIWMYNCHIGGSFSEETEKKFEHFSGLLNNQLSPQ
Method: LOX activity assay LOX activity of recombinant human LOXL2 or conditioned medium collected from cells expressing LOXL2 was measured using a Fluorimetric Lysyl Oxidase Activity Assay Kit (Abeam, Cambridge, Mass.) following a protocol provided by the manufacturer. Briefly, 50 μl of sample was mixed with an equal volume of assay reaction mixture containing LOX substrate, horseradish peroxidase (HRP) and HRP substrate in the presence and absence of testing inhibitors and D-penicillamine (DPA), a LOX inhibitor. The mixture was incubated for 30 min at 37° C. in darkness. The fluorescence increase was then measured with a fluorescence plate reader (BMG Lab Tech FLUOstar) at Ex/Em=540/590 nm. Sample buffer or medium alone without LOXL2 was used for determination of the background fluorescence.

Solubility (statement) = type: physicochemical

With O=C(O[C@@H]1O[C@@H]2COC(=O)c3cc(O)c(O)c(O)c3-c3c(cc(O)c(O)c3O)C(=O)O[C@H]([C@H]1O)[C@@H]2O)c1cc(O)c(O)c(O)c1 [corilagin, Corilagin] as the molecule, how does the “corilagin concentration in conditioned medium” value (LOXL2-low HaCaT cells) read?
The value was “not”.

What about the “corilagin concentration in conditioned medium” value (LOXL2-high A549 cells) of the same molecule?
The value was “decreased dramatically”.

And the “EGF signaling through EGFR” value (EGFR)?
Its value is “no effect”.

What about the “increase of urinary DPD/PYD levels days 10-21 post bleomycin” value [1] of the same molecule?
The value was “suppressed”.

What about the concentration at 2 h [2] of the same molecule?
The concentration at 2 h was 80 nM.

And the IC50 (human LOXL2)?
The IC50 was 50 nM.

And the solubility (Solubility (statement))?
The solubility was “more soluble”.

From patent US20210009551A1, “COMPOUNDS AND METHODS FOR TREATING FIBROSIS OR CANCER” (THE REGENTS OF THE UNIVERSITY OF CALIFORNIA, priority 2016, published 2021)
